According to article PMC9945734 (BMC Medicine, 2023):

Key:
[1] = system: MMP9; test: MMP9 immunohistochemical staining of bone metastases; assay type: in vivo, Balb/c nude mice; conditions: KLF5^K369Q-induced bone metastases
Method: Immunohistochemical staining was conducted following established procedures. Briefly, 4-μm sections of bone tissues were deparaffinized in xylene and rehydrated in gradient ethanol. The endogenous antigen was retrieved by incubating slides in 10 mM sodium citrate buffer (Cat #: C1010, Solarbio, Beijing, China) overnight in an oven at 65°C. After antigen retrieving, tissue sections were incubated with 3% hydrogen peroxide at room temperature for 10 min to block the endogenous […] activity. They were then incubated in a blocking solution (0.1% albumin bovine V mixed with 10% goat serum) for 40 min, and a solution containing a primary antibody (MMP9, 1:1000, Cat #: ab76003, Abcam, Cambridge, UK; MYBL2, 1:100, Cat #: ab76009, Abcam) for 1.5 h. After rinsing with PBS for 3 times, slides were incubated with the secondary antibody solution for 15 min and then with the DAB solution using the MaxVision II HRP kit (Cat #: KIT-5920, MXB Biotechnologies, Fuzhou, China). Nuclei were counterstained with hematoxylin for 2 min. Slides were then dehydrated with gradient ethanol (75–100%) and xylene and mounted with coverslips using the quick-hardening mounting medium. All slides were scanned using an Aperio VERSA 8 Scanner System (Leica, Wetzlar, Germany) and analyzed using the Image J software (Image J 1.48v, NIH, Bethesda, MD, USA).

[2] = system: RAW264.7 cells; test: CCK-8 cell viability assay; assay type: cell-based; conditions: concentrations smaller than 25 μM; 48 h
Method: According to the manufacturer's instructions, cell viability was measured using a kit from Beyotime Biotechnology. Briefly, cells were seeded onto 96-well plates at 5 × 10^3 cells per well, incubated overnight, and then treated for 48 h with drugs at 0, 0.02, 0.05, 0.14, 0.41, 1.23, 3.7, 11.1, 33.3, and 100 μM. […] At the end of drug treatment, the medium was removed, the CCK-8 solution was added into each well at 100 μL/well and incubated for 1.5 h at 37°C, and the optical density (OD) was measured at 450 nm using a microplate reader (BioTek).

[3] = system: PC-3-KQ-Luc cells; test: Bone metastasis assay, therapy mode; assay type: in vivo, Balb/c nude mice
Method: Male Balb/c nude mice at 3-4 weeks old were purchased from Charles River (Beijing, China). Upon arrival at the Animal Center of the Southern University of Science and Technology (SUSTech), mice were quarantined for one week before use. All mice were maintained and handled following the National Institutes of Health guide for the Care and Use of Laboratory Animals. […] The tumor growth and body weight were measured each week. […] Tumor growth in the bone was determined once a week by in vivo BL imaging using the Living Image Software 4.4 (IVIS Spectrum, PerkinElmer Health Sciences, Massachusetts, USA). Ten minutes after intraperitoneal injection of D-luciferin sodium salt (15 mg/mL, 10 μL/g BW) (GM-040611, Genomeditech, Shanghai, China), bioluminescence images were acquired with the following conditions: open emission filter, exposure time = 60 s, binning = medium: 8, field of view = 12.9 ×12.9 cm, and f/stop = 1. Images were then analyzed using the Living Image 4.4 software (PerkinElmer). At the end of treatment, bioluminescence intensities were measured by photon flux of the region of interest (ROI) and compared between the vehicle and NTZ treatment groups. […] CC0113, […] Biotechnology, Beijing, China) was used as vehicle control, and NTZ was solved in CMC. NTZ was delivered into mice via intragastric administration (100 mg/kg BW) every day. After the sacrifice of mice, hind limbs were removed and fixed in 4% paraformaldehyde for 48 h. Limbs were then scanned using a micro-CT scanner (Skyscan1276, Bruker, Kontich, Belgium). For micro-CT imaging, the scan parameters were: source voltage, 60 kV; source current, 100 μA; AI 0.5 mm filter; pixel size, 10 μm; rotation step, 0.4 degrees. The images were then processed and constructed using the NRecon software (Version 1.7.1.6, Bruker) and converted using […] (Version 1.5.4, Bruker). The region of interest (ROI), set at 0.5 mm from the femur growth plate, was analyzed using the CT-Analyser (CTAn) program. Parameters included bone volume/total volume (BV/TV), trabecular number (Tb.N), trabecular separation (Tb.Sp), and trabecular thickness (Tb.Th). Finally, the 3D images were performed in CTvox software (Version 2.0, Bruker). Femurs were decalcified in ethylenediaminetetraacetic (EDTA) decalcification solution (Cat #: R20403-5L, OKA, Beijing, China) for 14-21 days. After decalcification, bone tissues were dehydrated in gradient ethanol from 70 to 95%, soaked in n-butanol for 6 h, and then embedded in paraffin. Tissue blocks were cut into 4 μm sections. After baking in an oven at 63°C for 1.5 h, tissue slides were deparaffinized with xylene, hydrated with gradient ethanol, and then stained with H&E (Cat #: BA4025, BaSO, Zhuhai, China). Slides were then mounted for analysis with neutral resins (Cat #: 25608-33-7, Sigma-Aldrich, MO, USA).

[4] = by inhibiting RANKL-induced osteoclastogenesis; cited from earlier work
[5] = system: DU 145 (KLF5 null) cells expressing KLF5^K369Q; test: CCK-8 cell viability assay; assay type: cell-based, human; conditions: for cell number: DU 145-KQ
Method: (§1) According to the manufacturer's instructions, cell viability was measured using a kit from Beyotime Biotechnology. Briefly, cells were seeded onto 96-well plates at 5 × 10^3 cells per well, incubated overnight, and then treated for 48 h with drugs at 0, 0.02, 0.05, 0.14, 0.41, 1.23, 3.7, 11.1, 33.3, and 100 μM. Four drugs were analyzed: furagin, nifuratel, nitazoxanide, and retapamulin. At the end of drug treatment, the medium was removed, the CCK-8 solution was added into each well at 100 μL/well and incubated for 1.5 h at 37°C, and the optical density (OD) was measured at 450 nm using a microplate reader (BioTek).
(§2) We also tested a wider range of NTZ concentrations in PC-3-KQ and DU 145-KQ cells using the CCK-8 assay by seeding 2 × 10^3 cells and 2.5 × 10^3 cells onto each well of 96-well plates. PC-3-KQ cells were treated with NTZ at 0, 0.01, 0.1, […], 2.5, and 5 μM, while DU 145-KQ cells were treated with NTZ at 0, 0.01, 0.1, 5, 10, and 20 μM for 0, 24, 48, and 72 h. The number of viable cells was determined using the CCK-8 solution as described above.

[6] = system: PC-3 (KLF5 null) cells expressing KLF5^K369Q; test: CCK-8 cell viability assay; assay type: cell-based, human; conditions: for cell number: PC-3-KQ
Method: as §1, §2

[7] = 100 mg/kg intragastric every day
[8] = lower concentrations (0–0.1 μM), 0 to 72 h

CC(=O)Oc1ccccc1C(=O)Nc1ncc([N+](=O)[O-])s1 [Nitazoxanide]
MMP9 protein expression (IHC) [1]: decrease of MMP9 protein expression | cytotoxicity (cell viability) [2]: did not exhibit detectable cytotoxicity | bone lesions (micro-CT) [3, 7]: significantly reduced such lesions | tumor area in the bone (H&E) [3, 7]: significantly reduced the tumor area | BV/TV ([3]; micro-CT of femurs): significantly increased | Tb. N ([3]; micro-CT of femurs): significantly increased | Tb. Sp ([3]; micro-CT of femurs): potently decreased | Tb. Th ([3]; micro-CT of femurs): significantly increased | bioluminescence intensities ([3]; treatment from day 7 for 4 weeks, 100 mg/kg intragastric every day): sharply decreased bioluminescence intensities | bone loss in ovariectomized mice [4]: reduces bone loss | cell number ([5]; higher concentrations (up to 20 μM)): decreased cell number | cell number [5, 8]: did not affect cell number | IC50 ([5]; Homo sapiens, DU 145 (KLF5 null), KLF5^K369Q, CCK-8, 48 h): 22.7 ± 2.3 µM | IC50 ([6]; Homo sapiens, PC-3 (KLF5 null), KLF5^K369Q, CCK-8, 48 h): 5.4 ± 0.5 µM | cell number ([6]; higher concentrations (up to 5 μM)): decreased cell number | cell number [6, 8]: did not affect cell number
